Results taken from patent US12521362B2, “Agent for treating, preventing, or improving psychiatric and nervous system disorders or symptoms” (TOKYO UNIVERSITY OF SCIENCE FOUNDATION, priority 2019, dated 2026).

How the values were obtained:
[1] = tested on: anxiety-like behaviors in mice; experiment: Elevated plus maze (EPM) test of exploration behavior
Text: An elevated plus maze (EPM) apparatus (FIG. 1) was used to assess anxiety-like behaviors in mice administered with any of the test drugs. The EPM apparatus is a plus-shaped maze apparatus with open and closed arms and is used for assessment of anxiety-like behaviors of animals. Animals administered with a benzodiazepine (BZD) anxiolytic drug are known to increase the ratio of time spent in the open arm and the ratio of open arm entries. The EPM test is the most representative test available as a system for evaluating an anxiolytic drug.
Mice were acclimated to the testing laboratory for 60 minutes, and a prepared test drug was then administered to each mouse at a dose of 0.25 mL/20 g. After the elapse of a predetermined period of time from the administration of the drug, the EPM apparatus was used to quantify exploration behavior of the mouse for 5 minutes. The equations below were used to evaluate the effects of each test drug on exploration behavior in mice. Statistical analysis was performed with Dunnett's multiple comparison test, and a significant difference was considered at P<0.05. Time spent in open arm (%)−Time spent in open arm (sec)/{Time spent in open arm (sec)+Time spent in closed arm (sec)}×100 Open arm entry (%)−Open arm entries (times)/{Open arm entries (times)+Closed arm entries (times)}×100 Total arm entries (times)=Open arm entries (times)+Closed arm entries (times) 2.
Disulfiram was administered intraperitoneally to mice (n=8 per group) at a dose of 20, 40, or 80 mg/kg, and the mice were tested 30 minutes after the administration for their exploration behavior by using the EPM apparatus. As a positive control experiment, diazepam, a BZD anxiolytic drug, was administered subcutaneously to mice at a dose of 1.5 mg/kg (equivalent to the dose used clinically for humans), and the mice were similarly tested for their exploration behavior by using the EPM apparatus. A solution of 2% Tween 80, 10% DMSO, and 88% corn oil was administered intraperitoneally to mice in the solvent control group.
Disulfiram was administered to mice (n=8 per group) at a dose of 40 mg/kg, and the mice were tested 15, 30, 60, or 120 minutes after the administration for their exploration behavior by using the EPM apparatus.
Cyanamide was investigated for the presence of an anxiolytic-like effect. Cyanamide or disulfiram was administered to mice (n=6 per group) at a dose of 80 or 40 mg/kg, respectively, and the mice were tested 30 minutes after the administration for their exploration behavior by using the EPM apparatus.
The iron(III) complex of diethyldithiocarbamate (DDC) (Fe(DDC)3) as a disulfiram (DSF)-related compound was investigated for the presence of an anxiolytic-like effect. Each drug was administered intraperitoneally to mice in the Fe(DDC)3 dose group (n=5) and the DDC dose group (n=4) at a dose of 40 mg/kg. A solution of 2% Tween 80, 10% DMSO, and 88% corn oil was administered intraperitoneally to mice in the solvent control group (n=9). Thirty minutes after the administration, the elevated plus maze test was performed for 5 minutes.
The copper complex of DDC (Cu(DDC)2) as a DSF-related compound was investigated for the presence of an anxiolytic-like effect. Cu(DDC)2 was administered orally to mice (n=4) at a dose of 40 mg/kg. A solution of 2% Tween 80, 10% DMSO, and 88% corn oil was administered orally to mice in the solvent control group (n=4). Sixty minutes after the administration, the elevated plus maze test was performed for 5 minutes.

[2] = tested on: object recognition function in mice; experiment: Novel object location task (NOL), memory retrieval task; assay type: in vivo, Male C57BL/6J mice; details: DSF diet (0.8 mg DSF per 1 g diet) for 3 weeks; p<0.05 (FIG. 8)
Description: To 1 g of an MF diet, 0.8 mg of DSF and 50 mg of sucrose or only 50 mg of sucrose (without DSF) were added to prepare a DSF diet or a control diet, respectively, as a solid diet. The novel object location task (NOL) was conducted to assess object recognition function in mice administered with any of the test drugs. The NOL is a test used to evaluate the ability to remember the location of an object (Dix, S. L. & Aggleton, J. P., Behav Brain Res: 1999 March; 99(2): 191-200). Mice were placed in a 33 cm square white box (open field: OF) and allowed to explore the white box freely for 10 minutes every day in the period of 3 days (acclimation). On Day 4, two objects with the same shape were placed in the OF apparatus, and the mice were allowed to learn the locations of the objects (FIG. 8; learning). On Day 5, one of the objects was relocated to a location that was different from the original location during the learning tasks, and the mice were allowed to explore the objects for 5 minutes, and the length of time spent exploring the objects was measured (FIG. 8; memory retrieval task). […] In the NOL memory retrieval task, the length of time spent exploring each object was measured to evaluate the effect of each test drug on the cognitive ability of the mice.

[3] = tested on: spatial learning ability in mice; experiment: Morris water maze task (WM); assay type: in vivo, Male C57BL/6J mice; details: DSF diet for 4 weeks
Description: To 1 g of an MF diet, 0.8 mg of DSF and 50 mg of sucrose or only 50 mg of sucrose (without DSF) were added to prepare a DSF diet or a control diet, respectively, as a solid diet. Next, the Morris water maze task (WM) was conducted to assess spatial learning ability in mice administered with any of the test drugs. The WM is widely used for assessing spatial learning and memory in mice (Morris, R. G. M., Learning and Motivation: 1981, 12, 239-260). A WM apparatus was a circular pool of 120 cm in diameter, filled with white-colored water and equipped with a submerged platform (PF) on which a mouse was allowed to stand and rest. Mice were allowed to swim from a randomly selected starting point in the pool, and the distance spent swimming before reaching the hidden platform was measured (FIG. 9A). […] Thus, the spatial learning ability can be assessed based on the distance traveled to find the platform. […] The effect of a test drug on spatial memory formation was evaluated from the ratio of time spent exploring the area at each probe trial after the platform was removed from the original location. […] At the WM learning trials, the distance spent swimming before reaching the platform was measured every day to evaluate the effect of each test drug on the spatial learning of the mice. Moreover, the effect of each test drug on the spatial memory formation in the mice was evaluated at the probe trials.

[4] = tested on: hyperemotional response and hyperactivity in mice; experiment: Hyperemotional response and hyperactivity after chronic administration; assay type: in vivo, ICR mice; details: DSF diet freely for 3 months
Description: To 1 g of an MF diet, 0.8 mg of DSF and 50 mg of sucrose or only 50 mg of sucrose (without DSF) were added to prepare a DSF diet or a control diet, respectively, as a solid diet. ICR mice were allowed to eat the DSF diet (200 mg/day) freely for 3 months to assess hyperemotional response and hyperactivity. Hyperemotional response was evaluated in those mice according to the method of Kelly et al., (Kelly, J. P. et al., Pharmacol. Ther. Vol. 74, No. 3, pp. 299-316, 1997) by individually scoring (A) the response to an object placed in front of the nose, (B) the response to air blown thereon, or (C) the resistance to handling, based on the following criteria of emotional responses: • 0: no response; • 1: interest in the object, or only a slight movement, or easy to handle; • 2: protective or evasive actions against the object, or expression of surprise, or nervous but still easy to handle; • 3: aggressive actions such as biting, or clear expression of surprise, or nervous and difficult to handle; • 4: highly aggressive actions, or expression of surprise with jumping, or quite difficult to handle. The hyperactivity of each mouse was measured over a period of 30 seconds by counting the number of times the mouse crossed the lines that divided the floor of a cage to four areas.

[5] = tested on: mouse models of depression (SDS models); experiment: Social interaction (SI) test after social defeat stress (SDS models); assay type: in vivo, C57BL/6J mice; details: DSF diet freely for 3 months, then SDS for 10 days; control group SI time significantly decreased (FIG. 11)
Description: To 1 g of an MF diet, 0.8 mg of DSF and 50 mg of sucrose or only 50 mg of sucrose (without DSF) were added to prepare a DSF diet or a control diet, respectively, as a solid diet. C57BL/6J mice were allowed to eat the DSF diet (200 mg/day) freely for 3 months and then exposed to social defeat stress (SDS) for 10 days to create mouse models of depression (SDS models) (Golden S. A. et al., Nat Protoc. Vol. 6, No. 8, pp. 1183-1191, 2011). The SDS models were created by placing a single C57BL/6J mouse in a home cage where a male ICR mouse had been housed for a long period of time and exposing the mouse to physical aggression by the ICR mouse. In this study, the stress exposure was applied for 10 minutes a day in a period of consecutive 10 days. Depressive-like symptoms were evaluated by the social interaction (SI) test (Golden S. A. et al., 2011, supra). An apparatus composed of an open field apparatus (45 cm×45 cm×30 cm) and a mesh cage (8 cm×6 cm×30 cm) placed on one side of the open field apparatus was used to perform the SI test, in which the time (SI time) spent by the C57BL/6J mouse approaching and making contact with the ICR mouse (Target) in the mesh cage during the measurement time (2.5 minutes) was compared with that in the absence of the ICR mouse (Non-target).

[6] = tested on: wild-type APP-transfected cells; details: in vitro, cultured cells; data of Patent Document 3; cited from earlier work
[7] = subcutaneous 1.5 mg/kg, positive control (FIG. 3)
[8] = oral 40 mg/kg, sixty minutes after administration (FIG. 7)
[9] = intraperitoneal 40 mg/kg, 30 minutes, two mice with no sedative effect (FIG. 6)
[10] = 40 mg/kg, time course 15-120 minutes
[11] = intraperitoneal 20, 40 or 80 mg/kg, 30 minutes after administration, dose-dependent, vs solvent control (FIG. 2)
[12] = 80 mg/kg, 30 minutes after administration (FIG. 5)

## CN1C(=O)CN=C(c2ccccc2)c2cc(Cl)ccc21 [diazepam, Diazepam]
[1]; [7]
  ratio of open arm entries: increased
  ratio of time spent in the open arm: increased

## copper diethyldithiocarbamate [Cu(DDC)2]
[1]; [8]
  anxiolytic-like effect: confirmed to have an anxiolytic-like effect
  ratio of time spent in the open arm: significantly increased
[1]; oral 40 mg/kg, sixty minutes after administration, not significantly different (FIG. 7)
  ratio of open arm entries: clear tendency to increase

## CCN(CC)C(=S)[S-].CCN(CC)C(=S)[S-].CCN(CC)C(=S)[S-].[Fe+3] [Fe(DDC)3, diethyldithiocarbamic acid ferric salt]
[1]; intraperitoneal 40 mg/kg, 30 minutes (FIG. 6)
  anxiolytic-like effect: confirmed to have an anxiolytic-like effect
[1]; intraperitoneal 40 mg/kg, 30 minutes, observed in three mice of n=5, no exploration
  sedative effect: strong sedative effect
[1]; [9]
  ratio of open arm entries: significantly increased
  ratio of time spent in the open arm: significantly increased

## CCN(CC)C(=S)SSC(=S)N(CC)CC [disulfiram, tetraethylthiuram disulfide]
[1]; 40 mg/kg, tested 15, 30, 60 or 120 minutes after administration, increased from 15 minutes (FIG. 4)
  ratio of time spent in the open arm: significantly increased
[1]; [10]
  effect observed till (time after the administration): 60 min
  time of peak anxiolytic-like effect: 30 min
[1]; disulfiram 40 mg/kg to 80 mg/kg i.p. compared with diazepam 1.5 mg/kg s.c.
  anxiolytic-like effect: comparable to that of diazepam
[1]; [11]
  ratio of open arm entries: significantly increased
  ratio of time spent in the open arm: significantly increased
[2]
  time spent exploring the relocated object vs the object remaining at the original location: significantly longer
[3]; Days 4 and 6, p<0.05 vs control diet (FIG. 9A)
  distance traveled to find the platform: shorter
[3]; probe trial on Day 5, p<0.05 vs control diet (FIG. 9B)
  time spent for exploring the platform area at the probe trial: significantly longer
[4]; vs control diet group (FIG. 10A)
  hyperemotional response (score): significant decreases
[4]; vs control diet group (FIG. 10B)
  hyperactivity (line crossings in 30 seconds): significant decreases
[5]
  SI time in the presence of the Target vs Non-target: any change in SI time was not observed
[6]
  secretion of sAPPα: promote secretion of sAPPα

## N#CN [Cyanamide, cyanamide (H2 N—CN)]
[1]; [12]
  anxiolytic-like effect: no anxiolytic-like effect
  ratio of open arm entries: no significant effects
  ratio of time spent in the open arm: no significant effects
